Reference: PMC3750913 (BMC Microbiology, 2013)

Key:
VSV = format: cell-based, vesicular stomatitis virus; details: A549 cells
HCV [1] = assay: Viral attachment assay, method 1 (host cell infection); format: cell-based, hepatitis C virus; details: for inhibition of virus attachment: HCV, method 1, 4°C, Figure 4; for inhibition at 50 µM: Hepatitis C virus, Huh7.5, read-out: Window of antiviral effects: Attachment Method 1, inhibitory effect relative to DMSO control
HCMV [2] = assay: Viral attachment assay, method 2 (virus-specific cellular ELISA); format: cell-based, human cytomegalovirus; details: HCMV MOI 5, ELISA, 4°C; highest inhibitory concentration of the compounds
DENV-2 [3] = assay: Viral cell-to-cell spread assay; format: cell-based, dengue virus type 2; details: for effect on viral plaque size (cell-to-cell spread): DENV-2, Figure 7; for inhibition at 25 µM: Dengue virus, DENV2, Vero, read-out: Window of antiviral effects: Cell-to-cell spread, inhibitory effect relative to DMSO control
HCMV [4] = assay: Viral inactivation assay; format: cell-based, human cytomegalovirus
DENV-2 [5] = assay: Viral inactivation assay; format: cell-based, dengue virus type 2; details: Dengue virus
DENV-2 [6] = assay: Dose-response antiviral assay (immunohistochemical staining plaque assay); format: cell-based, dengue virus type 2; details: DENV-2, Vero cells
HCMV [7] = assay: Analysis of drug effects post viral entry; format: cell-based, human cytomegalovirus; details: for protection, treatment post-infection: HCMV, Figure 6
HCV [8] = assay: Viral cell-to-cell spread assay; format: cell-based, hepatitis C virus; details: for effect on viral plaque size (cell-to-cell spread): HCV, Figure 7; for inhibition at 50 µM: Hepatitis C virus, Huh7.5, read-out: Window of antiviral effects: Cell-to-cell spread, inhibitory effect relative to DMSO control
Experimental: (A) Schematic of the experiment (left) with the virus concentration (PFU/well) and step-wise incubation periods (i, ii, iii) indicated for each virus in the table on the right. Virus infections were established (i) in the different cell types by direct inoculation (HCMV, DENV-2, MV, and RSV) or electroporation of viral RNA (HCV; *), and the cell monolayers were washed with citrate buffer or PBS before being covered with an overlay medium that prevents secondary infection. Initial virus plaques were allowed to form in the subsequent infections (ii), and then the test compounds were added to the overlay medium for an additional time of incubation (iii) before analysis of viral plaque size by immune fluorescence microscopy. Five random virus-positive plaques at the endpoint of the experiment were evaluated for each treatment group of viruses, and the data was plotted as “fold change of plaque area” against the size of the initial viral plaques formed prior to test compound treatment. Analyses for (B) HCMV, (C) HCV, (D) DENV-2, (E) MV, and (F) RSV are indicated in each additional panel. The S29 cell line and the FIP inhibitor were included as controls for HCV and MV, respectively. Results shown are means ± SEM from three independent experiments and representative micrographs of the evaluated plaques are provided in Additional file 1 Figure S1, Additional file 2 Figure S2, Additional file 3 Figure S3, Additional file 4 Figure S4 and Additional file 5 Figure S5. See text for details.
The examination of HCV spread is based on previously described protocol with some modifications. Huh-7.5 cells were electroporated with HCV Jc1FLAG2(p7-nsGluc2A) RNA (10 μg) as described above to establish random productive infections in the cell population, and then mixed with naïve cells at a ratio of 1:1 before seeding in 12-well plates. […] Medium was changed 24 h post-electroporation with an overlay medium containing the test drugs or control and 0.5% methylcellulose, and the plates were further incubated for 5 days before analysis of HCV-positive foci through immunostaining.
For immunofluorescence analysis of viral plaque size due to spread, the overlay media were removed and the wells were fixed with ice-cold methanol before blocking with 3% BSA. Samples were then treated at 37°C for 1 h with the respective mouse monoclonal primary antibodies diluted in PBS containing 3% BSA: anti-HCMV gB antibody (1:1,000), anti-NS5A 9E10 antibody for HCV (1:25,000), anti-flavivirus group antibody (1:400) for DENV-2, and anti-RSV fusion protein antibody (1:1,000). After incubation, the wells were washed with PBS three times before applying Alexa Fluor 488 goat anti-mouse IgG (H + L) antibody (Invitrogen), diluted at 1:1,000 (HCMV and RSV) or 1:400 (DENV-2 and HCV) in PBS containing 3% BSA. Following incubation at 37°C for 1 h, the samples were washed with PBS three times prior to visualization by fluorescence microscopy. The fluorescence expression of MV-EGFP could be readily detected without addition of antibodies. Photomicrographs were taken at × 100 magnification (Leica Microsystems; Wetzlar, Germany) and viral plaque sizes were then analyzed with MetaMorph software (Molecular Devices; Sunnyvale, CA, USA). In the case of HCV, cellular nuclei were stained with Hoechst dye (Sigma) prior to visualization and the number of cells in the virus-positive foci was determined. For all virus tested, a total of five random virus-positive plaques were evaluated for each treatment group per independent experiment. Comparison was made between viral plaques stained prior to drug addition and those at the endpoint of the experiment, and the data were plotted as “fold change of plaque area”.

DENV-2 [9] = assay: Viral penetration assay; format: cell-based, dengue virus type 2; details: DENV-2; shift 4°C to 37°C; Figure 4
HCV [10] = format: cell-based, hepatitis C virus; details: Huh-7.5 cells
MV [11] = assay: Viral inactivation assay; format: cell-based, measles virus; details: for block of infection after pre-incubation of free virus with compound: MV, CHLA 90 μM, PUG 50 μM, Figure 3
MV [12] = assay: Viral attachment assay, method 2 (virus-specific cellular ELISA); format: cell-based, measles virus; details: MV MOI 1, ELISA, 4°C; highest inhibitory concentration of the compounds
MV [13] = assay: Analysis of drug effects post viral entry; format: cell-based, measles virus; details: for protection, treatment post-infection: MV, Figure 6
HCV [14] = assay: Analysis of drug effects post viral entry; format: cell-based, hepatitis C virus; details: for protection, treatment post-infection: HCV, Figure 6; for inhibition at 50 µM: Hepatitis C virus, Huh7.5, read-out: Window of antiviral effects: Post-infection, inhibitory effect relative to DMSO control
DENV-2 [15] = assay: Viral attachment assay, method 1 (host cell infection); format: cell-based, dengue virus type 2; details: DENV-2, method 1, 4°C; Figure 4
RSV = assay: Viral attachment assay, method 2 (virus-specific cellular ELISA); format: cell-based, respiratory syncytial virus; details: RSV MOI 5, ELISA, 4°C; highest inhibitory concentration of the compounds
HCMV [16] = assay: Viral attachment assay, method 1 (host cell infection); format: cell-based, human cytomegalovirus; details: Human betaherpesvirus 5, HEL, read-out: Window of antiviral effects: Attachment Method 1, inhibitory effect relative to DMSO control
[17] = Human betaherpesvirus 5, read-out: inhibition of infection after pre-incubation of free virus with compound
[18] = DENV2, Vero, read-out: Window of antiviral effects: Free particle, inhibitory effect relative to DMSO control
[19] = DENV2, read-out: inhibition of infection after pre-incubation of free virus with compound
[20] = Measles morbillivirus, read-out: Window of antiviral effects: Free particle, inhibitory effect relative to DMSO control
[21] = Measles morbillivirus, read-out: Window of antiviral effects: Post-infection, inhibitory effect relative to DMSO control

| SMILES | SI (selectivity index, CC50/EC50) (VSV) | inhibition of virus attachment (HCV [1]) | inhibition at 50 µM (HCV [1]) [%] | Window of antiviral effects: Attachment Method 2, inhibitory effect relative to DMSO control (HCMV [2]) | effect on viral plaque size (cell-to-cell spread) (DENV-2 [3]) | inhibition at 25 µM (DENV-2 [3]) [%] | inhibition at 25 µM (DENV-2 [5]; [18]) [%] | inhibition at 25 µM (DENV-2 [5]; [19]) [%] | SI (selectivity index, CC50/EC50) (DENV-2 [6]) | protection, treatment post-infection (HCMV [7]) | effect on viral plaque size (cell-to-cell spread) (HCV [8]) | inhibition at 50 µM (HCV [8]) [%] | SI (selectivity index, CC50/EC50) (HCV [10]) | block of infection after pre-incubation of free virus with compound (MV [11]) | Window of antiviral effects: Attachment Method 2, inhibitory effect relative to DMSO control (MV [12]) | protection, treatment post-infection (MV [13]) | protection, treatment post-infection (HCV [14]) | inhibition at 50 µM (HCV [14]) [%] | inhibition of virus attachment (DENV-2 [15]) | Window of antiviral effects: Attachment Method 2, inhibitory effect relative to DMSO control (RSV) | also measured |
| --- | --- | --- | --- | --- | --- | --- | --- | --- | --- | --- | --- | --- | --- | --- | --- | --- | --- | --- | --- | --- | --- |
| O=C1O[C@H]2[C@@H]3OC(=O)c4cc(O)c(O)c(O)c4-c4c(O)c(O)c5oc(=O)c6c(c(O)c(O)c7oc(=O)c4c5c76)-c4c(cc(O)c(O)c4O)C(=O)OC[C@H]3OC(O)[C@@H]2OC(=O)c2cc(O)c(O)c(O)c2-c2c1cc(O)c(O)c2O (mixture of isomers) [PUG, punicalagin] | 8.62 | 90 – 100% | > 75 | ++ (++ 50–75%) | unaffected and expanded further | < 25 | > 75 | ~100 | 19.27 | 80 – 100% | near initial size | > 75 | 13.31 | 60 – 80% | ++ (++ 50–75%) | 80 – 100% | 80 – 100% | > 75 | 90 – 100% | +++ (+++ > 75%) | inhibition at 40 µM (HCMV [4]; Human betaherpesvirus 5, HEL, read-out: Window of antiviral effects: Free particle, inhibitory effect relative to DMSO control): > 75%; inhibition at 40 µM (HCMV [4]; [17]): ~100%; inhibition at 40 µM (HCMV [7]; Human betaherpesvirus 5, HEL, read-out: Window of antiviral effects: Post-infection, inhibitory effect relative to DMSO control): > 75%; protection of the host cell from infection during virus penetration (DENV-2 [9]): 50 – 90%; inhibition at 50 µM (MV [11]; [20]): 50 to 75%; inhibition at 50 µM (MV [13]; [21]): > 75%; inhibition at 40 µM (HCMV [16]): 50 to 75% |
| O=C(O)C[C@@H]1C(=O)O[C@H]2[C@@H]3OC(=O)c4cc(O)c(O)c(O)c4-c4c(cc(O)c(O)c4O)C(=O)OC[C@H]2O[C@@H](OC(=O)c2cc(O)c(O)c(O)c2)[C@@H]3OC(=O)c2cc(O)c(O)c3c2[C@H]1[C@H](O)C(=O)O3 [CHLA, chebulagic acid] | 5.17 | 90 – 100% | > 75 | +++ (+++ > 75%) | unaffected and expanded further | < 25 | > 75 | ~100 | 12.18 | 80 – 100% | near initial size | > 75 | 19.54 | 60 – 80% | ++ (++ 50–75%) | 80 – 100% | 80 – 100% | > 75 | 90 – 100% | +++ (+++ > 75%) | inhibition at 60 µM (HCMV [4]; [17]): ~100%; inhibition at 90 µM (MV [11]; [20]): 50 to 75%; inhibition at 90 µM (MV [13]; [21]): > 75% |
